The values below come from paper PMC6092513, “Mechanisms Underlying the Strong Inhibition of Muscle-Type Nicotinic Receptors by Tetracaine” (Frontiers in Molecular Neuroscience, 2018).

Broadly, the EC50 is the midpoint of the concentration-response curve. One may read the IC50 as the concentration that gives 50% inhibition. A higher IC50 goes with weaker potency.

Test [1] has as its target T1, muscle-type nicotinic acetylcholine receptor (nAChR) (Torpedo marmorata, UniProt P02711+Q6S3H8+Q6S3H9+Q6S3I0).
T1 construct: gene CHRNA1; native heteropentameric receptor purified from electroplaques, reconstituted in asolectin lipids and transplanted to Xenopus oocytes; with beta1, gamma and delta nAChR subunits (CHRNB1, CHRNG, CHRND) with two alpha1
The test is described as follows: two-electrode voltage clamp, ACh concentration-current curve in Xenopus oocytes bearing transplanted nAChRs. The format is cell-based.

Test [2] concerns the target T1, muscle-type nicotinic acetylcholine receptor (nAChR). The test is described as follows: two-electrode voltage clamp of ACh-elicited peak currents ([…] ACh) in Xenopus oocytes bearing transplanted nAChRs. The test is classed as cell-based. For orientation: In two-electrode clamp one electrode senses voltage and the other passes current.

T1 sequence (P02711 25-461): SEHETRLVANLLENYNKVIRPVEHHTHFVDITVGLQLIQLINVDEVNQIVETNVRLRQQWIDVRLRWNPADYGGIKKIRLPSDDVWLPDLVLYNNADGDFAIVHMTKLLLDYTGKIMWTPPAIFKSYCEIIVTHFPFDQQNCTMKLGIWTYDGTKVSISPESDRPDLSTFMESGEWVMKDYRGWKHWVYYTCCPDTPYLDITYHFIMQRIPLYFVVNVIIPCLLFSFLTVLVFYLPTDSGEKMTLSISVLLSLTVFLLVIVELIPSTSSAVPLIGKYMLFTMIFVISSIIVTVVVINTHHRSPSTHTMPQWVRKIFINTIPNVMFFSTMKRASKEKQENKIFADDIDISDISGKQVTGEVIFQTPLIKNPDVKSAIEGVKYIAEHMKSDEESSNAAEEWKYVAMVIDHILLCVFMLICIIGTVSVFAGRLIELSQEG
T1 sequence (Q6S3I0 25-493): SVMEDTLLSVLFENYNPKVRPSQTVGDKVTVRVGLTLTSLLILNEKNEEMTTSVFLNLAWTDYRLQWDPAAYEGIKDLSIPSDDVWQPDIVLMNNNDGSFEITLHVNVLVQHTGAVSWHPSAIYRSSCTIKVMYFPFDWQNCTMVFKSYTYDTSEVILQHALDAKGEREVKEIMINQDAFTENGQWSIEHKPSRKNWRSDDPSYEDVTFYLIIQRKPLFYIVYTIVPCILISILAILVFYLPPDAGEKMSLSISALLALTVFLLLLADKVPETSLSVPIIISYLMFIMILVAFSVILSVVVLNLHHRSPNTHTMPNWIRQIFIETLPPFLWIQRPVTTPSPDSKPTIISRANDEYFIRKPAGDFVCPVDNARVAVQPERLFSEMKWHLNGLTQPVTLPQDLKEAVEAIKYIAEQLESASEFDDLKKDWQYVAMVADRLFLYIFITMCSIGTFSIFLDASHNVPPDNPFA
T1 sequence (Q6S3H9 18-505): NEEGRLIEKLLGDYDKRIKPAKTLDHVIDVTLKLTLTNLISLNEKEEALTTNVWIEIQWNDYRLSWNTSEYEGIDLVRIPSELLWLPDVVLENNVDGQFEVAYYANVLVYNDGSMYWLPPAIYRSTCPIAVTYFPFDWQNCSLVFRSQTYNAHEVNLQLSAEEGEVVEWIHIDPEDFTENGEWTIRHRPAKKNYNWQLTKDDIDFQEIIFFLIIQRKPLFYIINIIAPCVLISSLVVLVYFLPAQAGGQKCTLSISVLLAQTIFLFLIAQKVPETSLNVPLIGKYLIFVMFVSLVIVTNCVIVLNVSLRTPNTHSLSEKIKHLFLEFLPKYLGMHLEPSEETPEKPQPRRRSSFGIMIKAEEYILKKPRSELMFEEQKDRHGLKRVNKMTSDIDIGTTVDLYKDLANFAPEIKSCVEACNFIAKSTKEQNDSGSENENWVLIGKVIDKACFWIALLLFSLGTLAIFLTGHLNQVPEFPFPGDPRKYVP
T1 sequence (Q6S3H8 22-522): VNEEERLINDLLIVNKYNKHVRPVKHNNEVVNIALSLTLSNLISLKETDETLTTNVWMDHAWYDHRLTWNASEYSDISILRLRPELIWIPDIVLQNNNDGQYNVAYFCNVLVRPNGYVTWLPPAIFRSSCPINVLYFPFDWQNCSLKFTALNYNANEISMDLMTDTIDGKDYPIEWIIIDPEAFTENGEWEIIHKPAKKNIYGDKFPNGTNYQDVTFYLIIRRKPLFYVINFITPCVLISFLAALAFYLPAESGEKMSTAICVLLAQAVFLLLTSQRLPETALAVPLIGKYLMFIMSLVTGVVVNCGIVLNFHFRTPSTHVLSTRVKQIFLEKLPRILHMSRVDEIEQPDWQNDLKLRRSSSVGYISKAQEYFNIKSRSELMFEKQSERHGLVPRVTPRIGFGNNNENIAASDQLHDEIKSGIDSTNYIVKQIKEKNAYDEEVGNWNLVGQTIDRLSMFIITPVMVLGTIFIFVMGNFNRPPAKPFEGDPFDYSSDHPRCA

With `CC(=O)OCC[N+](C)(C)C` [ACh, acetylcholine], the half-maximal effective concentration (EC50) in test [1] worked out at 37 µM.

On to `CCCCNc1ccc(C(=O)OCCN(C)C)cc1` [Ttc, 2-(dimethylamino)ethyl 4-(butylamino)benzoate], for which the concentration for half-maximal inhibition (IC50) in test [2] is 0.7 µM.
